“And” between values parts separate entries of the source, which are not always exact repeats. Identical values can stand only once.
Assays:
Type in all cases: cell-based
GPR139 [1] = molecular target: T1, GPR139 (Homo sapiens, UniProt Q6DWJ6); test: Ca2+ mobilization assay, antagonist mode (EC80 800 nM Lundbeck Cmp 1a after 20 min preincubation), GPR139-CHOk1; details: individual replicates (Supplementary Figure 4)
T1 sequence (Q6DWJ6 1-353): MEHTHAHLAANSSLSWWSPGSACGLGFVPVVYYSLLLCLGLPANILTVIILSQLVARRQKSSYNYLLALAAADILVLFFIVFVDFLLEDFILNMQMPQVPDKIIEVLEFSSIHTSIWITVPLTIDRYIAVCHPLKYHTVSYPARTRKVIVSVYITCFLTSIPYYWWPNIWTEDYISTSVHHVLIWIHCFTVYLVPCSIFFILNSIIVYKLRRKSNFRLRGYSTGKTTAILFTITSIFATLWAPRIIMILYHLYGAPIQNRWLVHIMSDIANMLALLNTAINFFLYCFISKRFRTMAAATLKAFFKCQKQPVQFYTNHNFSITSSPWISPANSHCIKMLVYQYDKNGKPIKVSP
How it was run: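 Fluo-4-loaded GPR139-CHOk1 cells in HEPES-buffered HBSS (pH 7.4, 2.5 mM probenecid) given test compounds at 10 µM, then after 20 min challenged with 800 nM Lundbeck Cmp 1a (EC80). Calcium fluorescence read at 37 °C, 485/525 nm.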

[2] = molecular target: T2, human muscarinic acetylcholine M1 receptor (M1R) (Homo sapiens, UniProt P11229); test: Ca2+ mobilization counter-screen in M1R-CHOk1 cells; details: individual replicates (Supplementary Figure 5)
T2 sequence (P11229 1-460): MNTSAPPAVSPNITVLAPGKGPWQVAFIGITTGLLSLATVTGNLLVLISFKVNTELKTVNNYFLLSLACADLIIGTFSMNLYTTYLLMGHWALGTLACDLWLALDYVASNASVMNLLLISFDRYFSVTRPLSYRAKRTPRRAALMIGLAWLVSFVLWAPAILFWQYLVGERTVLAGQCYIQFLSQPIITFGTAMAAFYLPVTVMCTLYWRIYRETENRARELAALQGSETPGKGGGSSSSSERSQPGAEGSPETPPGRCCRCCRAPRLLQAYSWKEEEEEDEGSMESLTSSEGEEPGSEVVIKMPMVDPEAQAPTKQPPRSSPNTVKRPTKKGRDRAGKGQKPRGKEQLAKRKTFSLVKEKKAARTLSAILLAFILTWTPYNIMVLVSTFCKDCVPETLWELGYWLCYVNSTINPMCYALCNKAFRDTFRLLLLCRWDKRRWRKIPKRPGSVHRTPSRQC
How it was run: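 Intracellular calcium is tracked by Fluo-4 fluorescence at 37 °C in M1R-CHOk1 cells, with compounds dispensed automatically once baseline is taken. Buffer is HBSS with 20 mM HEPES, pH 7.4, plus 2.5 mM probenecid.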

GPR139 [3] = molecular target: T1, GPR139; test: Ca2+ mobilization assay, agonist mode, stable GPR139-CHOk1 cell line; details: for EC50 / Emax: Supplementary Table 2, mean ± SEM; for EC50: read-out: pEC50 Ca2+ (converted); for Emax: normalized to Lundbeck Cmp 1a, read-out: Emax (%) Ca2+
How it was run: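 Agonist activity of compounds is assessed in stably transfected CHO-K1 cells using the calcium dye Fluo-4 at 37 °C in HEPES-buffered HBSS (pH 7.4). Efficacy is expressed relative to the reference agonist Lundbeck Cmp 1a, set as 100%.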

[4] = Agonist mode, individual replicates (Supplementary Figure 4)
[5] = log [Compound] M = -4.5, individual replicate columns
[6] = log [Compound] M = -5.0, individual replicate columns
[7] = log [Compound] M = -5.5, individual replicate columns
[8] = log [Compound] M = -6.0, individual replicate columns
[9] = log [Compound] M = -6.5, individual replicate columns
[10] = log [Compound] M = -7.0, individual replicate columns
[11] = log [Compound] M = -7.5, individual replicate columns
[12] = log [Compound] M = -8.0, individual replicate columns
[13] = log [Compound] M = -8.5, individual replicate columns
[14] = log [Compound] M = -9.0, individual replicate columns

EC50 (GPR139 [3]) [µM] | Emax (GPR139 [3]) [%] | SMILES | Ca2+ signal (% of Cmp 1a) (GPR139 [1]) | Ca2+ signal (% of Carbachol) [2] | Ca2+ signal (% of Cmp 1a) (GPR139 [3]; [4]) | Ca2+ signal (% of Cmp 1a) (GPR139 [3]; [5]) | Ca2+ signal (% of Cmp 1a) (GPR139 [3]; [6]) | Ca2+ signal (% of Cmp 1a) (GPR139 [3]; [7]) | Ca2+ signal (% of Cmp 1a) (GPR139 [3]; [8]) | Ca2+ signal (% of Cmp 1a) (GPR139 [3]; [9]) | Ca2+ signal (% of Cmp 1a) (GPR139 [3]; [10]) | Ca2+ signal (% of Cmp 1a) (GPR139 [3]; [11]) | Ca2+ signal (% of Cmp 1a) (GPR139 [3]; [12]) | Ca2+ signal (% of Cmp 1a) (GPR139 [3]; [13]) | Ca2+ signal (% of Cmp 1a) (GPR139 [3]; [14])
2.51 | 90 ± 8 | Cc1nc(-c2nc(CC(=O)NC(C)c3ccccc3)no2)co1 (stereo not drawn) [Compound 1.29, CC(C1=CC=CC=C1)NC(CC2=NOC(C3=COC(C)=N3)=N2)=O] | 41 % of Cmp 1a and 13 % of Cmp 1a and 3 % of Cmp 1a | -4.71 % of Carbachol and 3.73 % of Carbachol and 1.63 % of Carbachol | 64 % of Cmp 1a and 49 % of Cmp 1a and 69 % of Cmp 1a | 126 % of Cmp 1a and 100 % of Cmp 1a and 74 % of Cmp 1a | 67 % of Cmp 1a and 101 % of Cmp 1a and 61 % of Cmp 1a | 46 % of Cmp 1a and 95 % of Cmp 1a and 41 % of Cmp 1a | 17 % of Cmp 1a and 47 % of Cmp 1a and 13 % of Cmp 1a | 0.562 % of Cmp 1a and 21 % of Cmp 1a and 3 % of Cmp 1a | -7 % of Cmp 1a and 12 % of Cmp 1a and 3 % of Cmp 1a | -2.32 % of Cmp 1a and 6.5 % of Cmp 1a and 3.51 % of Cmp 1a | 0.891 % of Cmp 1a and 5.39 % of Cmp 1a and 3 % of Cmp 1a | -0.262 % of Cmp 1a and 8 % of Cmp 1a and -2.12 % of Cmp 1a | -0.615 % of Cmp 1a and 11 % of Cmp 1a and -1.07 % of Cmp 1a
2.51 | 79 ± 3 | Cc1cc(-c2nc(CC(=O)NC(C)c3ccccc3)no2)on1 (stereo not drawn) [Compound 1.30, CC(C1=CC=CC=C1)NC(CC2=NOC(C3=CC(C)=NO3)=N2)=O] | 46 % of Cmp 1a and 28 % of Cmp 1a and 13 % of Cmp 1a | 4 % of Carbachol and -9 % of Carbachol and 13 % of Carbachol | 70 % of Cmp 1a and 59 % of Cmp 1a and 57 % of Cmp 1a | 86 % of Cmp 1a and 79 % of Cmp 1a and 75 % of Cmp 1a | 85 % of Cmp 1a and 68 % of Cmp 1a (2×) | 52 % of Cmp 1a and 50 % of Cmp 1a (2×) | -11 % of Cmp 1a and 14 % of Cmp 1a and 19 % of Cmp 1a | -12 % of Cmp 1a and 7 % of Cmp 1a (2×) | -10 % of Cmp 1a and 8 % of Cmp 1a and -3 % of Cmp 1a | -14 % of Cmp 1a and 7 % of Cmp 1a and -8 % of Cmp 1a | -5.33 % of Cmp 1a and 5.67 % of Cmp 1a and 1.67 % of Cmp 1a | -11 % of Cmp 1a and -3 % of Cmp 1a and 1.67 % of Cmp 1a | 10 % of Cmp 1a and 7 % of Cmp 1a and 3.67 % of Cmp 1a
3.16 | 86 ± 5 | Cc1ccc(-c2nc(CC(=O)NC(C)c3ccccc3)no2)nc1C (stereo not drawn) [Compound 1.31, CC(C1=CC=CC=C1)NC(CC2=NOC(C3=NC(C)=C(C)C=C3)=N2)=O] | 38 % of Cmp 1a and 34 % of Cmp 1a and 35 % of Cmp 1a | -8 % of Carbachol and 0.74 % of Carbachol and -0.0562 % of Carbachol | 66 % of Cmp 1a and 63 % of Cmp 1a and 64 % of Cmp 1a | 86 % of Cmp 1a and 82 % of Cmp 1a and 66 % of Cmp 1a and 84 % of Cmp 1a and 90 % of Cmp 1a | 64 % of Cmp 1a and 55 % of Cmp 1a and 44 % of Cmp 1a and 70 % of Cmp 1a and 87 % of Cmp 1a | 36 % of Cmp 1a and 30 % of Cmp 1a and 18 % of Cmp 1a and 73 % of Cmp 1a and 76 % of Cmp 1a | 7 % of Cmp 1a and 7.42 % of Cmp 1a and 11 % of Cmp 1a and 39 % of Cmp 1a and 38 % of Cmp 1a | 11 % of Cmp 1a and -0.0559 % of Cmp 1a and -2.48 % of Cmp 1a and 12 % of Cmp 1a and 13 % of Cmp 1a | -0.363 % of Cmp 1a and -3.44 % of Cmp 1a and 5.45 % of Cmp 1a and 7 % of Cmp 1a and 2.52 % of Cmp 1a | -1.4 % of Cmp 1a and 1.28 % of Cmp 1a and 5 % of Cmp 1a and 4.53 % of Cmp 1a and 3 % of Cmp 1a | 2 % of Cmp 1a and 3.59 % of Cmp 1a and 6 % of Cmp 1a and 2.52 % of Cmp 1a and -0.475 % of Cmp 1a | 1.45 % of Cmp 1a and 1.69 % of Cmp 1a and 3 % of Cmp 1a and 2.45 % of Cmp 1a and -0.45 % of Cmp 1a | 1.77 % of Cmp 1a and -0.256 % of Cmp 1a and 3.41 % of Cmp 1a and 8 % of Cmp 1a and 5 % of Cmp 1a
